Measurements taken from patent publication US20020025940A1, “Methods and compositions for sensitive and rapid, functional identification of genomic polynucleotides and use for cellular assays in drug discovery” (Aurora Biosciences Corporation, priority 1997, published 2002).

What was measured:
Format in all cases: cell-based, human
BLEC Jurkat clones = test: Specificity of activated BLEC Jurkat clones, relative beta-lactamase activity; settings: PMA 8 nM, Thaps 1 microM, CsA 100 nM, PHA 10 microgram/ml
Text: (§1) Isolated clones from PHA-induced (Example 6) and PHA-repressed (Example 7) procedures described above were characterized to determine the specificity of their modulation and time required for induction or repression. Clones were stimulated with multiple activators or inhibitors over a one to twenty-four hour time interval.
(§2) In this study, PMA, which is a PKC activator, Thapsigargin which increases intracellular calcium, PHA which activates the T-cell receptor pathway, and cyclosporin A which is a clinically approved immunosuppressant that inhibits the Ca^2+ dependent phosphates calcineurin were investigated for their ability to modulate beta-lactamase expression in PHA induced and repressed BLEC clones.

[1] = tested on: clone C2 (3×NFAT response element linked to beta-lactamase, M1 muscurinic receptor); test: Relative beta-lactamase activity of control clone C2; settings: PMA 8 nM, Thaps 1 microM, CsA 100 nM, PHA 10 microgram/ml
Text: as §1, §2

[2] = tested on: induced BLEC Jurkat clones; test: Characterization of induced BLEC Jurkat clones, change in 460/530 ratio; settings: PHA 10 microgram/ml, Thaps 1 microM, PMA 8 nM, Anti-CD3 2 microgram/ml
Text: These clones represent cells in which the trapping construct had integrated into a gene up regulated by PHA (T-cell) activation. Thus, these cells report the transcriptional activation of a gene upon cellular activation. Individual clones were identified and isolated by FACS using CCF2/AM to detect beta-lactamase activity. This clone isolation method, the induced sorting paradigm, used three sequential and independent stimulation and sorting protocols. […] These control cells were all green.
These isolated clones were expanded and tested for PHA inducibility by microscopic inspection with and without PHA stimulation in the presence of CCF2/AM. A total of fifty-five PHA inducible clones were identified using this procedure. The PHA inducibility for these clones ranged from a 1.5 to 40 fold change in the 460/530 ratio as compared to unstimulated control cells. Genomic Southern analysis using a DNA probe encoding beta-lactamase established that these clones represented 34 independent stable vector integration events. A list of clones obtained by the methods of the present invention and their characteristics is provided below in Table 6 and Table 7.
In addition to PHA inducible clones, Phobol 12-myristate 13-acetate (PMA) (Calbiochem), Thapsigargin (Thaps) (Calbiochem), and PMA+Thaps inducible clones were isolated using the general procedure set forth above using the indicated inducer rather than PHA. PMA is a specific activator of PKC (protein kinase C) and Thaps is a specific activator of intracellular calcium ion release (Thaps). These clones were isolated using three rounds of FACS using the general procedures described for the PHA inducible clones in Example 5. In such instances, other stimulants were substituted for PHA. PMA was provided at 8 nM, Thaps was provided at 1 microM. When these two stimulants were combined, their concentration was not changed. […] By using varied selection conditions, it is possible to isolate functionally distinct clones downstream of the desired signaling target.
Table 7 and Table 8 provide data similar to that provided in Table 5 for all of the clones obtained by the methods of Examples 5 to 7.

C/C=C(/C)C(=O)O[C@H]1C(C)=C2[C@H]([C@@H]1OC(=O)CCCCCCC)[C@@](C)(OC(C)=O)C[C@H](OC(=O)CCC)[C@@]1(O)[C@H]2OC(=O)[C@@]1(C)O [Thaps, Thapsigargin]
Relative Beta-Lactamase Activity of the Clone by the Indicated Stimulus After 24 hours (% of maximum activated stimuli) (BLEC Jurkat clones; clone J32-6D4): 1-2%
Relative Beta-Lactamase Activity of the Clone by the Indicated Stimulus After 24 hours (% of maximum activated stimuli) (BLEC Jurkat clones; clone J83 97-PPTR2 (repressed paradigm)): 85%
Relative Beta-Lactamase Activity of the Clone by the Indicated Stimulus After 24 hours (% of maximum activated stimuli) (BLEC Jurkat clones; clone J83-PI9): 100%
Relative Beta-Lactamase Activity of the Clone by the Indicated Stimulus After 24 hours (% of maximum activated stimuli) (BLEC Jurkat clones; clone J83-PTI8): 100%
Relative Beta-Lactamase Activity of the Clone by the Indicated Stimulus After 24 hours (% of maximum activated stimuli) (BLEC Jurkat clones; clone J389-PTI4): 5%
Relative Beta-Lactamase Activity of the Clone by the Indicated Stimulus After 24 hours (% of maximum activated stimuli) [1]: 0%
Change in 460/530 ratio in the indicated clone by the following activator ([2]; clone J83PI1): 3-4
Change in 460/530 ratio in the indicated clone by the following activator ([2]; clone J83PI2): 1-2
Change in 460/530 ratio in the indicated clone by the following activator ([2]; clone J83PI3): 6-7
Change in 460/530 ratio in the indicated clone by the following activator ([2]; clone J83PI4): 3-4
Change in 460/530 ratio in the indicated clone by the following activator ([2]; clone J83PI6): 7-8
Change in 460/530 ratio in the indicated clone by the following activator ([2]; clone J83PI7): 2
Change in 460/530 ratio in the indicated clone by the following activator ([2]; clone J83PI8): 1-2
Change in 460/530 ratio in the indicated clone by the following activator ([2]; clone J83PI9): 5-6
Change in 460/530 ratio in the indicated clone by the following activator ([2]; clone J83PI13): 2-3
Change in 460/530 ratio in the indicated clone by the following activator ([2]; clone J83PI14): 2
Change in 460/530 ratio in the indicated clone by the following activator ([2]; clone J83PI15): 2
Change in 460/530 ratio in the indicated clone by the following activator ([2]; clone J83PI16): 1-2
Change in 460/530 ratio in the indicated clone by the following activator ([2]; clone J83PI18): 7-8
Change in 460/530 ratio in the indicated clone by the following activator ([2]; clone J83PI19): 1-2
Change in 460/530 ratio in the indicated clone by the following activator ([2]; clone J97PI1): 3-4
Change in 460/530 ratio in the indicated clone by the following activator ([2]; clone J97PI3): 1-2
Change in 460/530 ratio in the indicated clone by the following activator ([2]; clone J97PI4): 1-2
Change in 460/530 ratio in the indicated clone by the following activator ([2]; clone J97PI5): 1.9
Change in 460/530 ratio in the indicated clone by the following activator ([2]; clone J97PI6): 4-6
Change in 460/530 ratio in the indicated clone by the following activator ([2]; clone J97PI7): 4-5
Change in 460/530 ratio in the indicated clone by the following activator ([2]; clone J97PI8): 3-4
Change in 460/530 ratio in the indicated clone by the following activator ([2]; clone J97PI9): 4-5
Change in 460/530 ratio in the indicated clone by the following activator ([2]; clone J97PI10): 3-4
Change in 460/530 ratio in the indicated clone by the following activator ([2]; clone J97PI11): 5-6
Change in 460/530 ratio in the indicated clone by the following activator ([2]; clone J97PI12): 5-6
Change in 460/530 ratio in the indicated clone by the following activator ([2]; clone J97PI13): 5-6
Change in 460/530 ratio in the indicated clone by the following activator ([2]; clone J97PI14): 3-4
Change in 460/530 ratio in the indicated clone by the following activator ([2]; clone J97PI15): 3-4
Change in 460/530 ratio in the indicated clone by the following activator ([2]; clone J97PI17): 7-8
Change in 460/530 ratio in the indicated clone by the following activator ([2]; clone J97PI18): 3-4
Change in 460/530 ratio in the indicated clone by the following activator ([2]; clone J97PI19): 2-3
Change in 460/530 ratio in the indicated clone by the following activator ([2]; clone J97PI20): 2-3
Change in 460/530 ratio in the indicated clone by the following activator ([2]; clone J97PI21): 2-3
Change in 460/530 ratio in the indicated clone by the following activator ([2]; clone J97PI22): 5-7
Change in 460/530 ratio in the indicated clone by the following activator ([2]; clone J97PI23): 4-5
Change in 460/530 ratio in the indicated clone by the following activator ([2]; clone J97PI24): 3-4
Change in 460/530 ratio in the indicated clone by the following activator ([2]; clone J97PI116): 3-4
Change in 460/530 ratio in the indicated clone by the following activator ([2]; clone J325B11): 1-2
Change in 460/530 ratio in the indicated clone by the following activator ([2]; clone J326C9): 1-2
Change in 460/530 ratio in the indicated clone by the following activator ([2]; clone J326D4): 0
Change in 460/530 ratio in the indicated clone by the following activator ([2]; clone J389PM2): 3-4
Change in 460/530 ratio in the indicated clone by the following activator ([2]; clone J389PM3): 2-3
Change in 460/530 ratio in the indicated clone by the following activator ([2]; clone J389PM5): 3-4
Change in 460/530 ratio in the indicated clone by the following activator ([2]; clone J389PM7): 2-3
Change in 460/530 ratio in the indicated clone by the following activator ([2]; clone J389PM8): 3-4
Change in 460/530 ratio in the indicated clone by the following activator ([2]; clone J389PT4): 10
Change in 460/530 ratio in the indicated clone by the following activator ([2]; clone J389PTt): 3-4
Change in 460/530 ratio in the indicated clone by the following activator ([2]; clone J389TI1): 2-3
Change in 460/530 ratio in the indicated clone by the following activator ([2]; clone J389TI4): 3-4
